Earlier results, collected in patent publication US20160213782A1, “POLYURETHANES AS ORAL DRUG DELIVERY PLATFORM” (Universiteit Gent, priority 2013, published 2016).
Counter-ions that a name gives are not always drawn.

Conditions: for aqueous solubility in 100 ml at 25° C.: in 100 ml water; for drug solubility: as given in legend of FIG. 1

aqueous solubility in 100 ml at 25° C. | SMILES | drug solubility
33 g | Cn1c(=O)c2c(ncn2CC(O)CO)n(C)c1=O (centres unmarked) [Dyph, 7-(2,3-dihydroxypropyl)-theophylline] | 
 | COCCc1ccc(OCC(O)CNC(C)C)cc1 (centres unmarked) [MPT, Metoprolol tartrate] | > 1000 mg/mL
1.4 g | CC(=O)Nc1ccc(O)cc1 [acetaminophen] | 

SMILES | aqueous solubility in 100 ml at 25° C. | drug solubility
Cn1c(=O)c2[nH]cnc2n(C)c1=O [TH, Theophylline] | 0.7 g | 10 mg/mL
